Measurements taken from ChEMBL document CHEMBL6078649, “Discovery of Chalcone Derivatives as Bifunctional Molecules with Anti-SARS-CoV-2 and Anti-inflammatory Activities” (J Nat Prod, 2024).
Calls of active or inactive are those of the source. No cut-off for these calls is given here.

How the values were obtained:
[1] = system: HOS-TE85; assay: Inhibition of cell proliferation of human MNNG/HOS cells at 10 uM; format: functional, cell-based
[2] = molecular target: T1, Chymotrypsin-C (Homo sapiens) (UniProt Q99895); assay: Inhibition of human CTRC using succinyl-Ala-Ala-Pro-Phe-p-nitroanilide as substrate at 10 uM preincubated for 30 mins followed by trypsin treatment for 1 hr and subsequent addition of substrate by absorbance based assay
T1 sequence (whole entry): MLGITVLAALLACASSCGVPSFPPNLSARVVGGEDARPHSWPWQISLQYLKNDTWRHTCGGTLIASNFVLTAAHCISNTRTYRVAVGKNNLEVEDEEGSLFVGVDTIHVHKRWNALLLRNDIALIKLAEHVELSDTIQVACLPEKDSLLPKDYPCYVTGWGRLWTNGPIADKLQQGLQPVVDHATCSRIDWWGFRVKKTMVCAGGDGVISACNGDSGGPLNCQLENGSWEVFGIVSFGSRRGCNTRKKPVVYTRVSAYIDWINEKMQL

[3] = system: MGC-803; assay: Inhibition of cell proliferation of human MGC-803 cells at 10 uM; format: functional, cell-based
[4] = molecular target: Procathepsin L (Homo sapiens) (UniProt P07711); assay: Inhibition of CTSL (unknown origin) using Z-Phe-ArgAMC as substrate at 10 uM preincubated for 30 mins followed by substrate addition by fluorescence based analysis
[5] = molecular target: Cathepsin B (Homo sapiens) (UniProt P07858); assay: Inhibition of CTSB (unknown origin) using Z-Phe-ArgAMC as substrate at 10 uM preincubated for 30 mins followed by substrate addition by fluorescence based analysis
[6] = molecular target: Transmembrane protease serine 2 (Homo sapiens) (UniProt O15393); assay: Inhibition of TMPRSS2 (unknown origin) using Boc-GIn-Ala-Arg-AMC as substrate at 10 uM preincubated for 60 mins followed by substrate addition by fluorescence based assay
[7] = Cytotoxicity against human Huh-7 cells harboring viral replicon/EGFP/Neo genes assessed as cell viability at 5 uM incubated for 24 hrs by Cell Titer Glo assay relative to control; format: toxicity, cell-based; conditions: read-out: Activity
[8] = Cytotoxicity against mouse RAW264.7 cells assessed as cell viability at 1 uM incubated for 24 hrs by CCK8 assay relative to control; format: toxicity, cell-based; conditions: read-out: Activity
[9] = system: RAW264.7; assay: Anti-inflammatory activity against mouse RAW264.7 cells assessed as inhibition of LPS-induced NO production at 10 uM preincubated for 1 hr followed by LPS treatment measured after 24 hrs relative to control; format: functional; conditions: time 25 hrs
[10] = molecular target: Replicase polyprotein 1ab (Severe acute respiratory syndrome coronavirus 2) (UniProt P0DTD1); assay: Covalent binding affinity to SARS-CoV-2 3CLPro at 90 uM by MS analysis
[11] = system: SJSA-1; assay: Inhibition of cell proliferation of human SJSA-1 cells at 10 uM; format: functional, cell-based
[12] = molecular target: T2, Replicase polyprotein 1ab (Severe acute respiratory syndrome coronavirus 2, UniProt P0DTD1); assay: Inhibition of SARS-CoV-2 3CLPro using DabcylKNSTLQSGLRK-Edans as substrate measured after 60 mins by FRET assay
[13] = molecular target: T2, Replicase polyprotein 1ab
[14] = Cytotoxicity against human Huh-7 cells harboring viral replicon/EGFP/Neo genes assessed as cell viability incubated for 24 hrs by Cell Titer Glo assay; format: toxicity, cell-based
[15] = molecular target: T2, Replicase polyprotein 1ab; assay: (§1) Mixed inhibition of SARS-CoV-2 3CLPro using DabcylKNSTLQSGLRK-Edans as substrate by FRET assay
[16] = molecular target: Replicase polyprotein 1ab (Severe acute respiratory syndrome coronavirus 2) (UniProt P0DTD1); assay: as §1
[17] = Cytotoxicity against mouse RAW264.7 cells assessed as cell viability at 10 uM incubated for 24 hrs by CCK8 assay relative to control; format: toxicity, cell-based; conditions: read-out: Activity
[18] = molecular target: Replicase polyprotein 1ab (Severe acute respiratory syndrome coronavirus 2) (UniProt P0DTD1); assay: Inhibition of SARS-CoV-2 3CLPro using DabcylKNSTLQSGLRK-Edans as substrate at 5 uM preincubated for 30 mins followed by substrate addition measured after 20 mins by FRET assay relative to control; conditions: time 50.0 min
[19] = molecular target: T2, Replicase polyprotein 1ab; assay: Inhibition of SARS-CoV-2 3CLPro using DabcylKNSTLQSGLRK-Edans as substrate measured after 3 mins by FRET assay
[20] = system: RAW264.7; assay: Anti-inflammatory activity against mouse RAW264.7 cells assessed as inhibition of LPS-induced NO production at 1 uM preincubated for 1 hr followed by LPS treatment measured after 24 hrs relative to control; format: functional; conditions: time 25 hrs
[21] = system: KHOS/NP; assay: Inhibition of cell proliferation of human KHOS/NP cells at 10 uM; format: functional, cell-based
[22] = Cytotoxicity against mouse RAW264.7 cells assessed as cell viability at 50 uM incubated for 24 hrs by CCK8 assay relative to control; format: toxicity, cell-based; conditions: read-out: Activity
[23] = Cytotoxicity against human Huh-7 cells harboring viral replicon/EGFP/Neo genes assessed as cell viability at 50 uM incubated for 24 hrs by Cell Titer Glo assay relative to control; format: toxicity, cell-based; conditions: read-out: Activity
[24] = system: 143B; assay: Inhibition of cell proliferation of human 143B cells at 10 uM; format: functional, cell-based
[25] = molecular target: Replicase polyprotein 1ab (Severe acute respiratory syndrome coronavirus 2) (UniProt P0DTD1); assay: Inhibition of SARS-CoV-2 3CLPro using DabcylKNSTLQSGLRK-Edans as substrate at 50 uM preincubated for 30 mins followed by substrate addition measured after 20 mins by FRET assay relative to control; conditions: time 50.0 min
[26] = system: GES1; assay: Inhibition of cell proliferation of human GES1 cells at 10 uM; format: functional, cell-based

Chain of Transmembrane protease serine 2 (Homo sapiens) (O15393 1-255 limits assumed): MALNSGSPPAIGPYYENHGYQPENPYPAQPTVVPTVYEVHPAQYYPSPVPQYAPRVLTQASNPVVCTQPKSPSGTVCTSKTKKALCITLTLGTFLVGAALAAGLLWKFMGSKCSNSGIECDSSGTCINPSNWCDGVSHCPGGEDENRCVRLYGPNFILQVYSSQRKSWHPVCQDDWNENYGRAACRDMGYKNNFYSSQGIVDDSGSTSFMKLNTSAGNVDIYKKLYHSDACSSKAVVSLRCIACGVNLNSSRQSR
Chain of Transmembrane protease serine 2 (Homo sapiens) (O15393 256-492 limits assumed): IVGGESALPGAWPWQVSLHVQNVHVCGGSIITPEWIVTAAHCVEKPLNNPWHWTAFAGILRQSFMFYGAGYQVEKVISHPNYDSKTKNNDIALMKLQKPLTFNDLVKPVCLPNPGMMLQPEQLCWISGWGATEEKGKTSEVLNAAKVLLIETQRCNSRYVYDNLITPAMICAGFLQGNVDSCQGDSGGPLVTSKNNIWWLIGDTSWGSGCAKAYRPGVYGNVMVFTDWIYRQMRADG
Chain of Procathepsin L (Homo sapiens) (P07711 114-333 limits assumed): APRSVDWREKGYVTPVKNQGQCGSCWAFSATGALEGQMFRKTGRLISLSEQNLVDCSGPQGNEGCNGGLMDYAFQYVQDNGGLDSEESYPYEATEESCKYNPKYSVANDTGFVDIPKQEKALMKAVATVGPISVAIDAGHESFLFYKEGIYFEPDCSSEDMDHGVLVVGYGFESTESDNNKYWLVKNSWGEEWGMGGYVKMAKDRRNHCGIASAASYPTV

Compound	inhibition [2]	inhibition [4]	inhibition [5]	inhibition [6]	viability at 24 h, 5 µM [7] [%]	viability at 24 h, 1 µM [8] [%]	inhibition at 10 µM [9] [%]	Activity [10]	IC50 [12] [nM]	IC50 [13] [nM]	CC50 at 24 h [14] [µM]	viability at 24 h, 10 µM [17] [%]	inhibition [18] [%]	IC50 [19] [nM]	inhibition at 1 µM [20] [%]	viability at 24 h, 50 µM [22] [%]	viability at 24 h, 50 µM [23] [%]	inhibition [25] [%]	also measured
O=C(/C=C/c1c(Cl)c(O)c(O)c(O)c1Cl)c1ccc(F)cc1	Active	inactive	inactive	Active	104	93.7	81.1	inactive	110	83.2	41.2	48.6	0.8	211	29.1	114	50	-0.1	inhibition [1]: inactive; inhibition [3]: inactive; inhibition [11]: inactive; Ki [15]: 200 nM; inhibition [16]: Dose-dependent-effect; The Result Suggests That Compound May Bind To Both Enzymatic Active Site And Allosteric Sites; inhibition [21]: inactive; inhibition [24]: inactive; inhibition [26]: inactive
O=C(/C=C/c1cc(O)c(O)c(O)c1)c1ccc(F)cc1	Active	inactive	inactive	inactive	95.2	116	68.6	Active	93.4	261	> 50	109	2.5	461	4.2	100	63.4	0.5	Ki [13]: 800 nM
